# Patent US10077455B2, “3HP tolerance” (TECHNICAL UNIVERSITY OF DENMARK, priority 2013, dated 2018)
# How the values were obtained:
# K. marxianus = assay: Effect of GSH addition on growth of yeast strains with 50 g/L 3HP; type: cell-based, Kluyveromyces marxianus
# Protocol: (§2) The yeast strains were grown in 3 mL Delft medium (pH 6.0) at 250 rpm, 25° C., overnight. Three μL of the overnight cultures were used to inoculate 100 μL Delft medium (pH 6.0) with or without 50 g/[MUT] in 96-well flat bottom plate. The 96-well plate was incubated with shaking in the SynergyTM MX microplate reader (BioTek) at 25° C. and the absorbance was measured at 600 nm wavelength every 15 min for 72 hours. Experiments were done in triplicates, and the specific growth rate (h^-1) was calculated. The effect of GSH addition was performed by adding 5 mM GSH into the cultivation medium containing 50 g/[MUT]. The growth of each strain was determined as mentioned above.
# [1] = tested on: E. coli strains W3110, CROOKS, W, BL21 (DE3), MG1655; assay: Effect of GSH addition on growth of E. coli strains in M9 with 20 g/L 3HP; type: cell-based; details: for effect of GSH addition on viability: M9 minimal medium with 20 g/L 3HP, pH 7.0, 37° C.
# Protocol: For E. coli, the effect of GSH addition on the growth of E. coli in the presence of 20 g/L 3HP was investigated. Five platform E. coli wild-type strains e.g. W3110, CROOKS, W, BL21 (DE3) and MG1655 were selected for 3HP tolerance experiment. Single colony from each strain was inoculated into 3 mL M9 medium and incubated at 250 rpm, 37° C., overnight. Two μL of the overnight cultures were used to inoculate 150 μL M9 medium, M9 with 20 g/L 3HP, and M9 with 20 g/L 3HP and 5 mM GSH in 96-well flat bottom plate. The pH of all E. coli tested media was at pH 7.0.
# The composition of M9 medium was as follows: 2.0 g/L glucose, 6.8 g/L Na HPO4, 3.0 g/L KH2PO4, 0.5 g/L NaCl, 1.0 g/L NH4Cl, 0.24 g/L MgSO4, 0.011 g/L CaCl2, 0.5 mL/L trace elements solution, and 1.0 mL/L Wolfe's Vitamin solution. The trace elements solution included 1.0 g/L FeCl3.6H2O, 0.18 g/L ZnSo4.7H2O, 0.12 g/L CuCl2.2H2O, 0.12 g/L MnSO4.H2O, and 0.18 g/L CoCl2.6H2O. The Wolfe's vitamin solution included 10 mg/L pyridoxine hydrochloride, 5.0 mg/L thiamine HCl, 5.0 mg/L riboflavin, 5.0 mg/L nicotinic acid, 5.0 mg/L calcium-(+) phantothenate, 5.0 mg/L para-amino benzoic acid, 5.0 mg/L thiotic acid, 2.0 mg/L d-biotin, 2.0 mg/L folic acid, and 0.1 mg/L vitamin B12. The trace elements and vitamin solutions were sterile-filtered and the solution was stored at 4° C. The M9 salt solution was prepared as a 10× concentrate solution and sterilized by autoclaving. 20% Glucose solution, 1M MgSO4, and 1M CaCl2 stock solutions were autoclaved separately.
# [2] = tested on: S. cerevisiae CEN.PK 113-7D strain (WT); assay: Toxicity of 3HP on growth of S. cerevisiae in Delft minimal medium; type: cell-based, Saccharomyces cerevisiae; details: Delft buffered medium pH 3.5, 30° C., 42 hours
# Protocol: The toxicity of 3HP on growth of S. cerevisiae CEN.PK 113-7D strain (WT) was determined by evaluating the ability of the WT strain to grow on a chemically defined minimal medium (Delft) containing varying concentrations of 3HP (0-100 g/L). The composition of Delft medium was as follows: 20.0 g/L glucose, 5.0 g/L (NH4)2SO4, 3.0 g/L KH2PO4, 0.5 g/L MgSO4.7H2O, 1.0 mL/L trace metal solution, 0.05 g/L antifoam A (10794, Sigma-Aldrich), and 1.0 mL/L vitamin solution. The trace element solution included 15 g/L EDTA, 0.45 g/L CaCl2.2H2O, 0.45 g/L ZnSO4.7H2O, 0.3 g/L FeSO4.7H2O, 100 mg/L […], 1 g/L MnCl2.2H2O, 0.3 g/L CoCl2.6H2O, 0.3 g/L CuSO4.5H2O, 0.4 g/L NaMoO4.2H2O. The pH of the trace metal solution was adjusted to 4.0 with 2 M NaOH and heat sterilized. […]
# A single colony from YPD plate (10 g/L yeast extract, 20 g/L peptone, 20 g/L glucose and 20 g/L agar) was inoculated in a shake flask with 20 mL YPD broth and grown at 30° C., with shaking at 200 rpm, overnight. The absorbance (OD600) of the overnight culture was measured at 600 nm wave length using NanoPhotometer™ UV/Vis (Implen) and the culture was diluted with YPD medium to obtain inoculum with the OD600 around 0.8. […] Experiments were done in duplicates, and the specific growth rate (h^−1) was calculated at various concentrations of 3HP.
# S. pombe = assay: Effect of GSH addition on growth of yeast strains with 50 g/L 3HP; type: cell-based, Schizosaccharomyces pombe
# Protocol: as §2
# C. jadinii = assay: as above; type: cell-based, Cyberlindnera jadinii
# Protocol: as §2
# Rhodotorula minuta = assay: as above; type: cell-based
# Protocol: as §2
# [3] = tested on: S. cerevisiae strains ST609, ST610, ST611; assay: 3HP tolerance of SFA1 allele replacement strains; type: cell-based, Saccharomyces cerevisiae; details: Delft buffered pH 3.5
# Protocol: For testing 3HP tolerance phenotype, two single colonies from each strain: ST609 (SFA1-wt), ST610 (SFA1^G827C) and ST611 (SFA1^G849A) were investigated for the ability to grow on media containing 3HP. […] The plate was incubated at 30° C. with 250 rpm agitation at 5 cm orbit cast overnight. […] Experiments were done in duplicates.
# Y. lipolytica = assay: Effect of GSH addition on growth of yeast strains with 50 g/L 3HP; type: cell-based, Yarrowia lipolytica
# Protocol: as §2
# T. delbrueckii = assay: as above; type: cell-based, Torulaspora delbrueckii
# Protocol: as §2
# [4] = tested on: S. cerevisiae WT, SFA1-alleles and sfa1Δ strains
# Protocol: The role of GSH in 3HP detoxification was investigated. The WT, SFA1-allles, and sfa1Δ strains were grown in the minimal medium with or without 50 g/L 3HP and supplemented with various concentration of external GSH (0-30 mM) and tested for 3HP tolerance.
# For testing 3HP tolerance phenotype, the pre-cultures were prepared by inoculation of a single colony in 1 mL Delft buffered (pH 3.5) media containing 10 g/L 3HP. The cultures were incubated at 30° C. with 250 rpm overnight. Five μL of the overnight cultures were used to inoculate 100 μL Delft buffered (pH 3.5) with or without 50 g/L 3HP and various concentration of GSH (0, 1, 2.5, 5, 10, and 20 mM) in 96-well flat bottom plate. The 96-well plate was incubated at 30° C. with shaking in the Synergy™ MX microplate reader (BioTek) and the absorbance was measured at 600 nm wavelength every 15 min for 42 hours. Experiments were done in triplicates.
# K. lactis = details: 5 mM GSH, 50 g/L 3HP, Delft medium pH 6.0, 25° C.
# Protocol: (§1) The yeast strains were grown in 3 mL Delft medium (pH 6.0) at 250 rpm, 25° C., overnight. Three μL of the overnight cultures were used to inoculate 100 μL Delft medium (pH 6.0) with or without 50 g/[…] in 96-well flat bottom plate. The 96-well plate was incubated with shaking in the SynergyTM MX microplate reader (BioTek) at 25° C. and the absorbance was measured at 600 nm wavelength every 15 min for 72 hours. Experiments were done in triplicates, and the specific growth rate (h^-1) was calculated. The effect of GSH addition was performed by adding 5 mM GSH into the cultivation medium containing 50 g/[…]. The growth of each strain was determined as mentioned above.
# S. kluyveri = details: 5 mM GSH, 50 g/L 3HP, Delft medium pH 6.0, 25° C.
# Protocol: as §1
# S. cerevisiae = details: 5 mM GSH, 50 g/L 3HP, Delft medium pH 6.0, 25° C.
# Protocol: as §1
# haploid wild-type cells = details: cited from earlier work
# [5] = 5 mM GSH, 50 g/L 3HP, Delft medium pH 6.0
compound,measurement,setting,value
"O=C(O)CCO [3HP, 3-hydroxypropionic acid]",3HP concentration tolerated (with decreased specific growth rate),"K. marxianus; Delft medium pH 6.0, 25° C.",more than 50 g/L
same,decrease in the specific growth rate compared to the cells grown in M9 medium,"[1]; strain MG1655, M9 medium containing 20 g/L 3HP",2.2 fold
same,concentration of 3-HP at which the wild type yeast is unable to grow at all,[2],75 g/L
same,concentration of 3-HP producing a substantial level of inhibition of growth,[2],above 10 g/L
same,3HP concentration tolerated (with decreased specific growth rate),"S. pombe; Delft medium pH 6.0, 25° C.",more than 50 g/L
same,3HP concentration tolerated (with decreased specific growth rate),"C. jadinii; Delft medium pH 6.0, 25° C.",more than 50 g/L
same,3HP concentration tolerated (with decreased specific growth rate),"Rhodotorula minuta; Delft medium pH 6.0, 25° C.",more than 50 g/L
same,3HP concentration in minimum media at which the strain could not grow,[3]; ST609 (SFA1-wt allele without over expression),above 40 g/L
same,3HP concentration in minimum media at which the strain could grow,[3]; ST610 (SFA1^G827C),above 40 g/L
same,3HP concentration in minimum media at which the strain could grow,[3]; ST611 (SFA1^G849A),above 40 g/L
same,3HP concentration tolerated (with decreased specific growth rate),"Y. lipolytica; Delft medium pH 6.0, 25° C.",more than 50 g/L
same,3HP concentration tolerated (with decreased specific growth rate),"T. delbrueckii; Delft medium pH 6.0, 25° C.",more than 50 g/L
"N[C@@H](CCC(=O)N[C@@H](CS)C(=O)NCC(=O)O)C(=O)O [GSH, glutathione]",effect of GSH addition on specific growth rate,K. marxianus; [5],improved
same,GSH concentration that restored growth in the presence of 50 g/L 3HP,"[4]; WT S. cerevisiae, 50 g/L 3HP, Delft buffered pH 3.5",≥ 2.5 mM
same,effect of GSH on growth,"[4]; all strains, minimal medium without 50 g/L 3HP",no significant effect
same,effect of GSH addition on growth,"[4]; sfa1Δ strain, 50 g/L 3HP",could not be restored
same,effect of GSH addition on growth rate,"[4]; strain carrying the SFA1 alleles, 50 g/L 3HP",improved the growth rate
same,effect of GSH addition on viability,"[1]; strain BL21, 5 mM GSH",restored the viability
same,effect of GSH addition on viability,"[1]; strain CROOKS, 5 mM GSH",restored the viability
same,effect of GSH addition on specific growth rate,"[1]; strain MG1655, 5 mM GSH, medium containing 20 g/L 3HP",improved
same,effect of GSH addition on viability,"[1]; strain W3110, 5 mM GSH",restored the viability
same,effect of GSH addition on viability,"[1]; strain W, 5 mM GSH",restored the viability
same,effect of GSH addition on specific growth rate,S. pombe; [5],improved
same,effect of GSH addition on specific growth rate,C. jadinii; [5],improved
same,effect of GSH addition on specific growth rate,Rhodotorula minuta; [5],improved
same,effect of GSH addition on specific growth rate,Y. lipolytica; [5],improved
same,effect of GSH addition on specific growth rate,T. delbrueckii; [5],improved
same,effect of GSH addition on viability,K. lactis,restored the viability
same,effect of GSH addition on viability,S. kluyveri,restored the viability
same,effect of GSH addition on viability,S. cerevisiae,restored the viability
C=O [formaldehyde],concentration that is cytostatic or cytotoxic,haploid wild-type cells,≥ 1000 µM
